Test results from publication PMC11674800, “Second-Generation Antipsychotics Induce Metabolic Disruption in Adipose Tissue-Derived Mesenchymal Stem Cells Through an aPKC-Dependent Pathway” (Cells, 2024).

Experiments:
Type in all cases: cell-based, human
INSRβ signaling in ADSCs = test: Insulin signaling Western blot / INSRβ immunoprecipitation; details: 5 μM, 16 h
Method: (§1) After treatments, whole-cell lysates were prepared using RIPA lysis buffer supplemented with protease inhibitors (AEBSF, aprotinin, bestatin, E-64, EDTA, leupeptin, Sigma-Aldrich, Saint Louis, MO, USA) and orthovanadate (Sigma-Aldrich, Saint Louis, MO, USA). The proteins in the lysates were collected and quantified using the Pierce BCA protein assay kit (Thermo Fisher Scientific, Waltham, MA, USA). Subsequently, the proteins were denatured by heating at 95 °C for 5 min in the presence of 2% Sodium Dodecyl Sulfate (SDS, Sigma-Aldrich, Saint Louis, MO, USA), 150 mM dithiothreitol (DTT, Sigma-Aldrich, Saint Louis, MO, USA), and 0.01% bromophenol blue (Sigma-Aldrich, Saint Louis, MO, USA). The samples were then analyzed using SDS-PAGE (SDS-Polyacrylamide Gel Electrophoresis) and Western blotting (WB).
Following treatment, the cells were stimulated with insulin at 50 ng/mL for 15 min. For the immunoprecipitation of the insulin receptor beta subunit (INSRβ), cell lysates were prepared using RIPA lysis buffer with protease inhibitors, as described previously. The lysates were then incubated for 1 h with magnetic beads (Dynabeads Protein G, Thermo Fisher Scientific, Waltham, MA, USA) that had been previously bound to anti-INSRβ antibody, following the manufacturer’s instructions. After incubation, the beads were washed three times with RIPA buffer to remove non-specifically bound proteins. The immunoprecipitated proteins bound to the beads were then eluted by boiling the beads at 95 °C for 5 min in the presence of 2% SDS, 150 mM DTT, and 0.01% bromophenol blue. The eluted proteins were analyzed using SDS-PAGE and, subsequently, using WB.

INSRβ = INSRβ endocytosis assay and immunofluorescence localization; details: 5 μM, 16 h; 15 min insulin stimulation
Method: ADSCs were seeded at a density of 100,000 cells/well in a 6-well plate. The protocol was carried out as described in Barrow-McGee et al., 2015 [33]. Cell surface proteins were labeled by incubating the cells with 0.2 mg/mL sulpho-NHS-SS-biotin (Sigma-Aldrich, Saint Louis, MO, USA) in PBS for 45 min on ice. Labeled cells were then washed with cold PBS and incubated at 37 °C in a culture medium containing insulin at 50 ng/mL to allow for INSR trafficking. At the indicated times, the medium was removed and the dishes were transferred to ice and washed with cold PBS. Biotin was removed from the proteins that remained at the cell surface via reduction for 15 min with 180 mM of the membrane-impermeant reducing agent MesNa (sodium 2 mercaptoethane sulphonate, Sigma-Aldrich, Saint Louis, MO, USA) in 50 mM Tris and 100 mM NaCl at pH 8.6. MesNa was quenched by adding 180 mM iodoacetamide (IAA, Sigma-Aldrich, Saint Louis, MO, USA) for 10 min. The cells were lysed using RIPA buffer as previously described. The proteins were quantified using BCA; equal protein amounts received streptavidin–agarose beads (Sigma-Aldrich, Saint Louis, MO, USA) and were agitated at 4 °C for 2 h. Then, the beads were collected via centrifugation (7000× g) and washed in lysis buffer, and the proteins were extracted by heating at 95 °C with sample buffer. In each internalization assay, two controls were carried out. To measure INSRβ at the surface, biotinylated cells at 4 °C were lysed without biotin reduction (Ts). To verify the efficiency of the surface biotin removal, the biotin reduction and MesNa-quenching steps were carried out on cells that had remained on ice (T0). Then, lysis was carried out. All lysates were analyzed via Western blot.
The percentages of internalized INSR were calculated using the following formula: internalized receptor = (receptor level after incubation at 37 °C) − (receptor level at time 0)/(total surface receptor) × 100. All samples were normalized on the input INSR signal.
For INSRβ endocytosis experiments, the cells were stimulated with 50 ng/mL insulin for 15 min. For transferrin endocytosis experiments, the cells were incubated with 25 μg/mL Transferrin Texas Red for 5 min. After treatment, the cells were washed with PBS and fixed with 4% PFA for 10 min at room temperature, followed by an additional PBS wash. The cells were then permeabilized by incubating them with cold HEPES-Triton X-100 buffer for 5 min at 4 °C. […] Images were acquired using a confocal microscope (Leica TCS SP8, Wetzlar, Germany) and analyzed using ImageJ (v 1.52a) software in order to quantify and analyze the fluorescence signals.

ADSCs = test: Acidic vesicle quantification (Lysotracker)
Method: After treatment, the medium was removed, and the cells were stained with 50 nM Lysotracker Deep Red (Invitrogen, Waltham, MA, USA) and 5 μg/mL Hoechst 33342 (Sigma). Staining was conducted in the dark at 37 °C for 30 min. Fluorescence signals were captured using a FLoid Cell Imaging Station (Life Technology, Carlsbad, CA, USA). The ratio of Lysotracker red signal to blue nuclear signal was quantified using ImageJ software. For acidic vesicle rescue experiments, ADSCs were plated at a concentration of 10,000 cells per well in 48-well plates.

LC3B = test: Autophagy induction (LC3B Western blot, LAMP1/LC3B colocalization); details: 16 h treatment
Method: as §1
For INSRβ endocytosis experiments, the cells were stimulated with 50 ng/mL insulin for 15 min. For transferrin endocytosis experiments, the cells were incubated with 25 μg/mL Transferrin Texas Red for 5 min. After treatment, the cells were washed with PBS and fixed with 4% PFA for 10 min at room temperature, followed by an additional PBS wash. The cells were then permeabilized by incubating them with cold HEPES-Triton X-100 buffer for 5 min at 4 °C. After permeabilization, the cells were incubated with primary antibodies for 30 min, followed by incubation with Alexa Fluor 488- or 546-conjugated secondary antibodies (Invitrogen, Waltham, MA, USA) and phalloidin, labeled with either Alexa Fluor 546 or 633 (Invitrogen Waltham, MA, USA) for 30 min. After incubation, coverslips were mounted on glass slides using a mounting medium. Images were acquired using a confocal microscope (Leica TCS SP8, Wetzlar, Germany) and analyzed using ImageJ (v 1.52a) software in order to quantify and analyze the fluorescence signals.

## Cc1cc2c(s1)Nc1ccccc1N=C2N1CCN(C)CC1 [olanzapine]
INSRβ signaling in ADSCs; basal and after insulin stimulation
  phosphorylated INSRβ serine residues: increased levels
INSRβ signaling in ADSCs; insulin 50 ng/mL
  INSRβ tyrosine phosphorylation (P-INSRβ Y1146): reduction
  P-AKT T308, P-AKT S473, and P-ERK T202/Y204: decrease
INSRβ
  INSRβ colocalization in LAMP1-positive lysosomes: unaffected
  INSRβ internalization: significant reduction
  INSRβ localization in CD63-positive recycling endosomes: reduced
  localization of INSRβ in RAB7-positive late endosomes: significantly increased localization
ADSCs
  acidic compartment accumulation (Lysotracker staining): progressive time- and dose-dependent increase
  concentrations at which acidic compartment accumulation was observed: below 1 µM
LC3B
  colocalization of LAMP1 with LC3B: not observed
  conversion of LC3B-I to LC3B-II: not after olanzapine
